Drawing on PMC3388044, “Probing of Exosites Leads to Novel Inhibitor Scaffolds of HCV NS3/4A Proteinase” (PLoS ONE, 2012), this text covers IC50 for 51 compounds.

Each structure is given as a SMILES string.

The first assay deals with T1, HCV NS3/4A (wild-type) (Hepatitis C virus genotype 1b, UniProt O92972).
T1 construct: The NS3/4A construct represented the individual NS3 proteinase domain N-terminally fused with an NS4A co-factor; 6xHis; purchased AnaSpec (Fremont, CA)
T1 sequence (O92972 1027-1208): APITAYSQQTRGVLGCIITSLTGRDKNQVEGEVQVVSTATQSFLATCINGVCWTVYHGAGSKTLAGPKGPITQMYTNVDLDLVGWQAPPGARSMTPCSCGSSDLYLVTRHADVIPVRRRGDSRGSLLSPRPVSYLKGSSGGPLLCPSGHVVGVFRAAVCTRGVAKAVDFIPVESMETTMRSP
The experiment in a line: NS3/4A activity assay with FRET peptide substrate, wild-type enzyme. In kind it is biochemical, HCV genotype 1b, strain HC-J4. The conditions noted are these: Table S1 100-1000; wild-type NS3/4A, FRET peptide substrate; read-out: NS3/4A IC50 range class 100-1000. The source says:
Reagents were purchased from Sigma unless indicated otherwise. The FRET substrate Ac-DE-D(Edans)-EE-Abu-ψ-[COO]-AS-K(Dabsyl)-NH2, purified recombinant wild-type NS3/4A from HCV genotype 1b, strain HC-J4, and the mutants with the V36M, R155K, A156T, D168A and V170A resistance mutations were from AnaSpec (Fremont, CA). The NS3/4A construct represented the individual NS3 proteinase domain N-terminally fused with an NS4A co-factor and tagged with a 6xHis tag. NS3/4A was in active form and the pre-activation by pep-4A or pep4AK was not necessary. Pyroglutamic acid-Arg-Thr-Lys-Arg-7-amino-4-methylcoumarin was from Peptides International (Louisville, KY). West Nile virus NS2B-NS3 proteinase (strain NY99) was expressed, purified and refolded to restore its functional activity as described earlier. The pET15b-Den2-CF40-Gly-NS3pro 185 plasmid encoding the Dengue virus type 2 NS2B-NS3 protease was a kind gift of Dr. Subhash Vasudevan (Program in Emerging Infectious Diseases, DUKE-NUS Graduate Medical School, Singapore). DV NS2B-NS3 proteinase was expressed purified and refolded to restore its functional activity as described previously, [70]. The expression of the soluble C-terminally truncated human furin construct in Sf9 insect cells (an ovarian cell line from fall armyworm Spodoptera frugiperda; Invitrogen, Carlsbad, CA) infected with the recombinant baculovirus and purification of soluble furin from the medium were described earlier. Original human hepatocarcinoma Huh7 cells were obtained from ATCC (Manassas, VA).
The NS3/4A activity assay was performed at 37°C in triplicate in wells of a 96-well plate in 0.2 ml 50 mM HEPES, pH 7.5, containing 100 mM NaCl, 10 mM DTT, 20% glycerol, the Ac-DE-D(Edans)-EE-Abu-ψ-[COO]-AS-K(Dabsyl)-NH2 substrate (10 µM) and the NS3/4A enzyme (10 nM). Reaction velocity was monitored continuously at λex = 355 nm and λem = 500 nm for 10 min using a Spectramax Gemini EM fluorescence spectrophotometer (Molecular Devices, Sunnyvale, CA) and the initial rate of reaction v was recorded for each reaction. There was no significant additional absorption by compounds 1–8 we identified, which might interfere with NS3/4A assay. Compound stock solutions (10 mM) were made in 100% DMSO. Stocks were then diluted using the assay buffer. As a result, the final DMSO concentration was always below 1% in the assay reactions.
To measure the inhibitory potency of the compounds, their increasing concentrations were pre-incubated with the individual proteinases in the corresponding buffer for 30 min at ambient temperature. At least, 7–9 different concentrations were used for each inhibitor. The residual activity of the enzymes was then measured as above. The IC50 values of the inhibitory compounds were calculated by determining the concentrations of the compounds needed to inhibit 50% of the enzyme activity against the peptide substrate. GraphPad Prism was used as fitting software.
Consider `CN(C)CCCNc1nc(-c2cccc(C(Cl)(Cl)Cl)c2)nc(C(Cl)(Cl)Cl)n1` [Compound 44], for which the IC50 was 100 to 1000 µM.
Same read-out and setting: under `FC(F)(F)C1=N/C(=C2\N=C(C(F)(F)F)N=C2Cl)C(Cl)=N1` [Compound 48] stands 100 to 1000 µM; under `Cn1ncc2c(Nc3ccc(O)cc3)nc(Cl)nc21` [Compound 42], 100 to 1000 µM; under `Cc1cc(S(=O)(=O)Nc2nc3ccsc3c(=O)n2Cc2ccccc2)c(S)cc1Cl` [Compound 60], 100 to 1000 µM.
Same read-out and setting: under `CSc1nc2nc(Cl)c(Cl)nc2[nH]1` [Compound 47] stands 100 to 1000 µM; under `FC(F)(F)C(F)(F)c1nc2nc(Cl)c(Cl)nc2[nH]1` [Compound 45], 100 to 1000 µM.
On the same count and under the same terms, under `NC(=S)/N=C(\c1nc2ccc(Cl)cc2[nH]c1=O)C(O)c1ccccc1Cl` (stereo not drawn) [Compound 50] stands 100 to 1000 µM.
Consider `Cc1cccc(C(C)C)c1NC(=O)C(=O)CC(=O)c1sc(Nc2ccccc2Cl)nc1C` [Compound 56], for which the IC50 is 100 to 1000 µM.
Consider `O=C(CCc1nnc2s/c(=C\c3ccccc3[N+](=O)[O-])c(=O)n12)Nc1cc(Cl)c(Cl)cc1Cl` [Compound 54], for which the IC50 lay within 100 to 1000 µM.
Consider `CC(CNc1nc(Nc2ccc(Cl)c(Cl)c2)nc(C(Cl)(Cl)Cl)n1)N(C)C` (stereo not drawn) [Compound 49], for which the IC50 lay within 100 to 1000 µM.
Still for that read-out and setting: the same measure for `S=c1[nH]n2c(COc3ccc(OCc4nnc5sc(=S)[nH]n45)c(Cl)c3)nnc2s1` [Compound 59]: 100 to 1000 µM; for `CC(C)(CCC#N)c1nc2sc(C(C)(C)CCC#N)nc2s1` [Compound 43]: 100 to 1000 µM; for `COc1ccc(OC)c(NC(=O)c2c(Cl)c(Cl)c(Cl)c(Cl)c2-c2nc3ccccc3[nH]2)c1` [Compound 58]: 100 to 1000 µM.
Still for that read-out and setting: the same measure for `O=C(Nc1ccc(Br)cc1)C(=O)C(C(=O)c1ccc(Cl)c(Cl)c1)C1OC(=O)c2ccccc21` (stereo not drawn) [Compound 55]: 100 to 1000 µM; for `Clc1nc2nc3n(c2nc1Cl)CCC3` [Compound 46]: 100 to 1000 µM.
Same read-out and setting: under `CC(=O)Nc1ccc(NC(=O)c2c(Cl)c(Cl)c(Cl)c(Cl)c2-c2nc3ccccc3[nH]2)cc1` [Compound 57] stands 100 to 1000 µM.
Turning to `OCCOCn1nc(-c2ccccc2)nc1-c1cnccn1` [Compound 51], the IC50 was in the range of 100 to 1000 µM.
Still for that read-out and setting: under `O=S(=O)(Nc1c(Cl)c(Cl)c(Cl)c(Cl)c1NS(=O)(=O)c1ccccc1)c1ccccc1` [Compound 52] stands 100 to 1000 µM; under `O=[N+]([O-])c1cc([N+](=O)[O-])c2ccccc2c1NS(=O)(=O)c1ccc(Cl)c(Cl)c1Cl` [Compound 53], 100 to 1000 µM.

Still in this assay, the particulars now being: Table S1; wild-type NS3/4A, FRET peptide substrate; read-out: NS3/4A IC50 range class 10 -100.
For the compound `O=C(CNC(=O)Nc1ccc(Cl)c(Cl)c1)NNC(=O)Nc1ccc(F)c(Cl)c1` [Compound 23], the IC50 was 10 to 100 µM.
On the same count and under the same terms, under `O=C(Nc1ccc(Cl)c(Cl)c1)C1C(=O)C(=O)N(c2ccc(Cl)c(Cl)c2)C1=O` (stereo not drawn) [Compound 24] stands 10 to 100 µM.
The same measure, in the same setting: the same measure for `CC(C)N(C(=O)CSc1c(Cl)c(Cl)c(Cl)c(Cl)c1Cl)C(C)C` [Compound 19]: 10 to 100 µM.
On the same count and under the same terms, under `O=C(O)c1c(Br)c(Br)c(Br)c(Br)c1C(=O)Nc1cc([N+](=O)[O-])ccc1O` [Compound 22] stands 10 to 100 µM.
As to `Cc1nn(C(=S)S)c(C)c1N=Nc1cccc(Cl)c1Cl` [Compound 26], the IC50 fell in the range of 10 to 100 µM.
On the same count and under the same terms, the same measure for `C(=C\c1ccccc1)/Cn1nc(-c2ccccc2)nc1-c1cnccn1` [Compound 32]: 10 to 100 µM; for `Clc1ccc(Nc2nc(SCc3ccccc3)nc3n[nH]c(Cc4nn[nH]n4)c23)cc1` [Compound 40]: 10 to 100 µM.
On to `Cc1cc(S(=O)(=O)Nc2nc3cc(-c4ccc(Cl)cc4)sc3c(=O)n2N)c(S)cc1Cl` [Compound 33], for which the IC50 was in the range of 10 to 100 µM.
For `Sc1ccccc1Nc1nc(SCc2ccccc2)nc2n[nH]c(Cc3nc4ccccc4s3)c12` [Compound 34], the IC50 was in the range of 10 to 100 µM.
Still for that read-out and setting: under `O=C(N/N=C\c1cc(Br)cc(Br)c1O)N/N=C/c1cc(Br)cc(Br)c1O` [Compound 20] stands 10 to 100 µM.
On the same count and under the same terms, the same measure for `FC(F)(F)c1cccc(-c2nc3nc(Cl)c(Cl)nc3[nH]2)c1` [Compound 18]: 10 to 100 µM.
`OCC(O)C(O)C(O)c1nn(-c2ccccc2)c2nc3cc(Cl)c(Cl)cc3nc12` (stereo not drawn) [Compound 31]: the IC50 fell in the range of 10 to 100 µM.
On the same count and under the same terms, the same measure for `O=[N+]([O-])c1ccc(O)c(C=Nc2cc(Cl)c(Cl)cc2NS(=O)(=O)c2ccccc2)c1` [Compound 37]: 10 to 100 µM; for `Cn1ncc2c(Nc3cc(Cl)ccc3Cl)ncnc21` [Compound 12]: 10 to 100 µM.
The same measure, in the same setting: under `Oc1ccc(C=NCCN=Cc2ccc(O)cc2O)c(O)c1.[Ni]` [Compound 14] stands 10 to 100 µM; under `O=C1C=C(Nc2ccc(Cl)cc2Cl)C(=O)C=C1Nc1ccc(Cl)cc1Cl` [Compound 15], 10 to 100 µM; under `Clc1ccc(OCc2nn3c(CCCCc4nnc5sc(COc6ccc(Cl)cc6Cl)nn45)nnc3s2)c(Cl)c1` [Compound 35], 10 to 100 µM.
Still for that read-out and setting: under `CSC(=S)n1nc(C)c(N=Nc2cccc(Cl)c2Cl)c1C` [Compound 29] stands 10 to 100 µM; under `Brc1ccc2c(ccc3c2nnc2ncnn23)c1` [Compound 30], 10 to 100 µM; under `O=C(Nc1ccc(Cl)c(Cl)c1)c1ccc(C(=O)Nc2ccc(Cl)c(Cl)c2)cc1` [Compound 21], 10 to 100 µM.
On to `O=C1c2cc(Cl)ccc2-c2ccc(N=Cc3ccc(Cl)c(Cl)c3)cc21` [Compound 16], for which the IC50 lay within 10 to 100 µM.
Still for that read-out and setting: under `O=S(=O)(Nc1c(Cl)c(Cl)c(NS(=O)(=O)c2ccccc2)c(Cl)c1Cl)c1ccccc1` [Compound 38] stands 10 to 100 µM.
On the same count and under the same terms, under `O=C(CCCC(=O)N/N=C/c1ccc(Cl)cc1Cl)N/N=C/c1ccc(Cl)cc1Cl` [Compound 17] stands 10 to 100 µM; under `O=C(Nc1ccc(Cl)c(Cl)c1)C(=O)C(C(=O)c1ccccc1F)C1OC(=O)c2ccccc21` (stereo not drawn) [Compound 39], 10 to 100 µM; under `Oc1c(Br)cc(CN(Cc2cc(Br)c(O)c(Br)c2)C2CCCCC2)cc1Br` [Compound 13], 10 to 100 µM.
Regarding `O=S(=O)(Nc1cc(Cl)c(Cl)cc1N=Cc1ccc(N(CCCl)CCCl)cc1F)c1ccccc1` [Compound 36], the IC50 fell in the range of 10 to 100 µM.
Still for that read-out and setting: the same measure for `O=C1CS(=O)(=O)CN1c1ccc(Cl)c(Cl)c1` [Compound 25]: 10 to 100 µM; for `Cc1c(N=Nc2cccc(Cl)c2Cl)c(-c2ccccc2)nn1C(=S)S` [Compound 27]: 10 to 100 µM; for `Cc1nn(C(N)=S)c(C)c1N=Nc1cccc(Cl)c1Cl` [Compound 28]: 10 to 100 µM.

Still in this assay, the particulars now being: wild-type NS3/4A 10 nM, Ac-DE-D(Edans)-EE-Abu-ψ-[COO]-AS-K(Dabsyl)-NH2 10 µM, 30 min pre-incubation; read-out: NS3/4A IC50.
For `S=c1[nH]nc(CCCCc2n[nH]c(=S)n2/N=C/c2ccc(Cl)cc2Cl)n1/N=C/c1ccc(Cl)cc1Cl` [Compound 10], the IC50 came to 5.25 µM.
Still for that read-out and setting: the same measure for `O=C(c1ccco1)c1c(C(F)(F)F)n([O-])c2cc(Cl)c(Cl)cc2[n+]1=O` [Compound 11]: 6.5 µM.
Same read-out and setting: the same measure for `FC(F)(F)c1nc2nc(Cl)c(Cl)nc2s1` [Compound 9]: 4.5 µM.
